Measurements as given in patent publication US4755509A, “Heterocyclic aldose reductase inhibitors and methods of using them” (Carbipem, priority 1984, dated 1988).
Counter-ions that a name gives are not always drawn.

Target: T1, aldose reductase (Rattus norvegicus, UniProt P07943)
T1 construct: rat lens homogenate used as a source of enzyme; from tissue; host or cells: rat lens homogenate
Test: in vitro inhibition of aldose reductase from rat lens homogenate (DL-glyceraldehyde substrate, NADPH, spectrophotometry at 340 nm)
Assay type: biochemical
Conditions: for inhibition at 100 µM: concentration 10^-4 mol/liter; for inhibition at 10 µM: concentration 10^-5 mol/liter; for inhibition at 1 µM: concentration 10^-6 mol/liter; for inhibition at 0.1 µM: concentration 10^-7 mol/liter; for inhibition at 0.01 µM: concentration 10^-8 mol/liter; for IC50: n = average of 3 determinations (Example 132: average of 2 determinations)
Experimental: The inhibitory activity on aldose reductase is evaluated in vitro starting from a rat lens homogenate used as a source of enzyme. The substrate used is DL-glyceraldehyde, which is converted by aldose reductase to glycerol in the presence of NADPH (*). This reaction is followed by spectrophotometry at 340 nm in the absence and in the presence of the inhibitors to be tested, the variation in optical density being proportional to the oxidation of the reduced coenzyme.
The results are shown in Table I below and represent, for different examples, the percentage inhibition of the enzymatic activity, relative to the control activity, as a function of the different concentrations (mol.l^-1) used.

[1] = read-out: Inhibition relative to the control activity, %

| SMILES | inhibition at 100 µM [1] [%] | inhibition at 10 µM [1] [%] | inhibition at 1 µM [1] [%] | inhibition at 0.1 µM [1] [%] | inhibition at 0.01 µM [1] [%] | inhibition at 0.001 µM (concentration 10^-9 mol/liter, read-out: Inhibition relative to the control activity, %) [%] | IC50 [nM] |
| --- | --- | --- | --- | --- | --- | --- | --- |
| O=C(O)CN1C(=O)CSc2ncccc21 [Example 110, Pyrido[2,3-b]thiazin-2(3H)-one-1-acetic acid] | 95 | 82 | 37 | 11 | 4 | 9 | – |
| O=C(O)CN1C(=O)CNc2ncccc21 [Example 114, Pyrido[2,3-b][1,4]pyrazin-2(3H)-one-1-acetic acid hydrochloride] | 95 | 86 | 6 | – | – | – | – |
| O=C(O)CN1C(=O)CSc2ccc(C(F)(F)F)cc21 [Example 115, 6-Trifluoromethyl-2H-1,4-benzothiazin-3-one-4-acetic acid] | 90 | 57 | – | 3 | – | – | – |
| O=C(O)CN1C(=S)CSc2cc(F)ccc21 [Example 117, 7-Fluoro-2H-1,4-benzothiazine-3-thione-4-acetic acid] | 100 | 100 | – | 65 | 5 | – | 82 ± 1 |
| O=C(O)CN1C(=O)CSc2ccc(F)cc21 [Example 118, 6-Fluoro-2H-1,4-benzothiazin-3-one-4-acetic acid] | 98 | 91 | 10 | – | – | – | – |
| O=C(O)CN1C(=O)CSc2cc(Cl)ccc21 [Example 121, 7-Chloro-2H-1,4-benzothiazin-3-one-4-acetic acid] | 97 | 92 | – | 16 | – | – | – |
| CC1Sc2ccccc2N(CC(=O)O)C1=O (stereo not shown) [Example 125, 2-Methyl-2H-1,4-benzothiazin-3-one-4-acetic acid] | 99 | 91 | – | 12 | – | – | – |
| O=C(O)CN1C(=S)CSc2cc(Cl)c(C(F)(F)F)cc21 [Example 129, 6-Trifluoromethyl-7-chloro-2H-1,4-benzothiazine-3-thione-4-acetic acid] | – | 74 | – | – | 5 | – | – |
| O=C(O)CN1C(=S)C(c2ccccc2)Sc2ccccc21 (stereo not shown) [Example 130, 2-Phenyl-2H-1,4-benzothiazine-3-thione-4-acetic acid] | – | 99 | – | 95 | 17 | – | – |
| CC1Sc2ccccc2N(CC(=O)O)C1=S (stereo not shown) [Example 132, 2-Methyl-2H-1,4-benzothiazine-3-thione-4-acetic acid] | – | 95 | – | 92 | 16 | – | 42 ± 13 |
| CC1Sc2ccc(F)cc2N(CC(=O)O)C1=S (stereo not shown) [Example 137, 6-Fluoro-2-methyl-2H-1,4-benzothiazine-3-thione-4-acetic acid] | – | 94 | – | 80 | 13 | – | – |
| CC1(c2ccccn2)Sc2ccccc2N(CC(=O)O)C1=O (stereo not shown) [Example 151, 2-Methyl-2-(pyridin-2'-yl)-2H-1,4-benzothiazin-3-one-4-acetic acid] | 96 | 73 | – | 16 | – | – | – |
| O=C(O)CN1C(=S)COc2ccc(F)cc21 [Example 152, 6-Fluoro-2H-1,4-benzoxazine-3-thione-4-acetic acid] | 100 | 99 | – | 54 | – | – | 86 ± 4 |

Next, values leading:

| inhibition at 100 µM [1] [%] | inhibition at 10 µM [1] [%] | inhibition at 1 µM [1] [%] | inhibition at 0.1 µM [1] [%] | inhibition at 0.01 µM [1] [%] | inhibition at 0.001 µM (concentration 10^-9 mol/liter, read-out: Inhibition relative to the control activity, %) [%] | IC50 [nM] | SMILES |
| --- | --- | --- | --- | --- | --- | --- | --- |
| 96 | 80 | – | 5 | – | – | – | O=C(O)CN1C(=O)CSc2nc(Cl)ccc21 [Example 111, 6-Chloropyrido[2,3-b]thiazin-2(3H)-one-1-acetic acid] |
| 100 | 95 | 25 | – | – | – | – | O=C(O)CN1C(=O)CSc2cc(F)ccc21 [Example 116, 7-Fluoro-2H-1,4-benzothiazin-3-one-4-acetic acid] |
| 100 | 98 | – | 67 | 22 | – | 46 ± 2 | O=C(O)CN1C(=S)CSc2ccc(F)cc21 [Example 119, 6-Fluoro-2H-1,4-benzothiazine-3-thione-4-acetic acid] |
| 97 | 81 | – | 0 | – | – | – | O=C(O)CN1C(=O)CSc2cc(Cl)c(C(F)(F)F)cc21 [Example 123, 6-Trifluoromethyl-7-chloro-2H-1,4-benzothiazin-3-one-4-acetic acid] |
| 97 | 86 | – | 10 | – | – | – | O=C(O)CN1C(=O)CSc2ccccc21 [Example 124, 2H-1,4-Benzothiazin-3-one-4-acetic acid] |
| – | 98 | – | 93 | 28 | – | – | O=C(O)CN1C(=S)CSc2cc(Cl)ccc21 [Example 127, 7-Chloro-2H-1,4-benzothiazine-3-thione-4-acetic acid] |
| – | 98 | – | 69 | 18 | – | 54 ± 5 | O=C(O)CN1C(=S)CSc2ccccc21 [Example 133, 2H-1,4-Benzothiazine-3-thione-4-acetic acid] |
| – | 95 | – | 30 | 11 | – | – | CC1Sc2ccc(F)cc2N(CC(=O)O)C1=O (stereo not shown) [Example 136, 6-Fluoro-2-methyl-2H-1,4-benzothiazin-3-one-4-acetic acid] |
| – | 94 | – | 56 | 29 | – | 91 ± 15 | O=C(O)CN1C(=S)CCc2cc(Cl)ccc21 [Example 154, 6-Chloro-3,4-dihydroquinoline-2-thione-1-acetic acid] |
